Assay results taken from patent US10479780B2, “Aminopyrazole derivatives” (Chugai Seiyaku Kabushiki Kaisha, priority 2015, dated 2019).
Read-outs that look alike come from different tables or passages of the source.

Tests used:
Format in all cases: biochemical
[1] = molecular target: T1, human Yes1 enzyme (Homo sapiens, UniProt P07947); assay: Yes1 enzyme inhibitory activity (time-resolved fluorometry, biotinylated peptide phosphorylation); details: read-out: YES_IC50
T1 construct: made in house
In short: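 Inhibition was expressed against a compound-free control to give IC50, using TR-FRET read-out (Eu-cryptate anti-pTyr antibody, streptavidin-XL665).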

[2] = molecular target: T2, human Src enzyme (Homo sapiens, UniProt P12931); assay: Src enzyme inhibitory activity (time-resolved fluorometry, biotinylated peptide phosphorylation); details: read-out: SRC_IC50
T2 construct: purchased Carna Biosciences, Inc. 08-173
In short: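 Compounds were tested for blocking tyrosine phosphorylation of a biotinylated peptide substrate by recombinant human Src. Phosphorylated product was quantified by time-resolved fluorometry using europium cryptate and XL665 conjugates, and IC50 was calculated against the compound-free control.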

[3] = molecular target: T3, human Lck enzyme (Homo sapiens, UniProt P06239); assay: Lck enzyme inhibitory activity (time-resolved fluorometry, biotinylated peptide phosphorylation); details: read-out: LCK_IC50
T3 construct: purchased Carna Biosciences, Inc. 08-170
In short: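 Readout pairs a europium cryptate-labelled anti-phosphotyrosine antibody with XL665-streptavidin, measured by time-resolved fluorescence. IC50 derived from percent inhibition against untreated controls.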

[4] = biotinylated peptide phosphorylation

T2 sequence (P12931 whole entry): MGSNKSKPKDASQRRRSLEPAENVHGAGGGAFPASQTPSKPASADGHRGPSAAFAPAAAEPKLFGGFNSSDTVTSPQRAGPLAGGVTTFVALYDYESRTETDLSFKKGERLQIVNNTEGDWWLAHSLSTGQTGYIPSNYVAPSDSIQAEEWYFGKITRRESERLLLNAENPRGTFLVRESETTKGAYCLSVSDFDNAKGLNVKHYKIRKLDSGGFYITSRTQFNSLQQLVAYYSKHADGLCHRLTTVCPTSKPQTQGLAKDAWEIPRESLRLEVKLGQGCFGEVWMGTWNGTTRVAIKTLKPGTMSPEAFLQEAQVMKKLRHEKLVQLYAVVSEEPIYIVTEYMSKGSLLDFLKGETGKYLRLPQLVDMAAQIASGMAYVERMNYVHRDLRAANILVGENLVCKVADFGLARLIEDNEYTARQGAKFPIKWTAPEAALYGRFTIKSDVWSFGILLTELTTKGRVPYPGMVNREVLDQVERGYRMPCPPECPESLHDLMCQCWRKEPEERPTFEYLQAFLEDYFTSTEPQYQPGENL
T3 sequence (P06239 whole entry): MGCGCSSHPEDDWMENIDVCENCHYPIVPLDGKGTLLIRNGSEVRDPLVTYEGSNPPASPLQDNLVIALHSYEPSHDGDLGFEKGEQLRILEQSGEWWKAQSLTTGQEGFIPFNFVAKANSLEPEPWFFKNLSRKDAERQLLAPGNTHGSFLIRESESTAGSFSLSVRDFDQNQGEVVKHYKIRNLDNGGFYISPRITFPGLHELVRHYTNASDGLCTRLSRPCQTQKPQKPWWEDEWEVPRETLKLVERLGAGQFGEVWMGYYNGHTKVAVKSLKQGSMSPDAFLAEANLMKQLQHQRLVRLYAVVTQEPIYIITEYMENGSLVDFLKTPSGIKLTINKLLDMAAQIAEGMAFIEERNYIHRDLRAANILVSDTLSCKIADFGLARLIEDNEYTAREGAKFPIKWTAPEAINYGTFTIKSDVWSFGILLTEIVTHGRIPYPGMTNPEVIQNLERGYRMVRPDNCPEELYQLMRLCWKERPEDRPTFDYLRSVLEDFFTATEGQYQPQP
T1 sequence (P07947 whole entry): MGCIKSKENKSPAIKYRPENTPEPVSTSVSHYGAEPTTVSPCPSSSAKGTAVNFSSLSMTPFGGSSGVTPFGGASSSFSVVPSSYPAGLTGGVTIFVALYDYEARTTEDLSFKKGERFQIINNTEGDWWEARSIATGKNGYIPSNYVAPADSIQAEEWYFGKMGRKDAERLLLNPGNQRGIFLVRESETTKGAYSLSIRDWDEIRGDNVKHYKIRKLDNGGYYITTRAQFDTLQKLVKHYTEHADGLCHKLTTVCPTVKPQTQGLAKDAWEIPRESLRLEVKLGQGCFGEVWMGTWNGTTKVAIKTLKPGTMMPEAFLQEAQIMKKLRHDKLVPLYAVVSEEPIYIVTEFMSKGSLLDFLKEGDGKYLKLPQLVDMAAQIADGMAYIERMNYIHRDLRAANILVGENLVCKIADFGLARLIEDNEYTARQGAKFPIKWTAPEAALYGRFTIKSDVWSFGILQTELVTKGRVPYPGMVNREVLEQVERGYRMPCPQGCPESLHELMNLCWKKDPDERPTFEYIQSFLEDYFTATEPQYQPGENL

SMILES	IC50 [1]	IC50 [2]	IC50 [3]	IC50 [1, 4]	IC50 [2, 4]	IC50 [3, 4]
Nc1c(C(=O)c2cc3cc(F)c(NS(=O)(=O)CCCF)cc3[nH]2)cnn1-c1ccc(Oc2ncccc2Cl)cc1F [Example 5-1-036, N-[2-[5-amino-1-[4-(3-chloropyridin-2-yl)oxy-2-fluorophenyl]pyrazole-4-carbonyl]-5-fluoro-1H-indol-6-yl]-3-fluoropropane-1-sulfonamide]	1.5 nM	140 nM	65 nM	–	–	–
Cc1cc2cc(C(=O)c3cnn(-c4ccc(Oc5ccccc5F)cc4C)c3N)[nH]c2cc1N1C(=O)NC2(CC2)C1=O [Example 5-1-372, 6-[2-[5-amino-1-[4-(2-fluorophenoxy)-2-methylphenyl]pyrazole-4-carbonyl]-5-methyl-1H-indol-6-yl]-4,6-diazaspiro[2.4]heptane-5,7-dione]	1.3 nM	16 nM	6.1 nM	–	–	–
Cc1cc(Oc2ccccc2F)ccc1-n1ncc(C(=O)c2cc3cc(F)c(N4CC5(CCOCC5)NS4(=O)=O)cc3[nH]2)c1N [Example 5-1-403, [5-amino-1-[4-(2-fluorophenoxy)-2-methylphenyl]pyrazol-4-yl]-[6-(2,2-dioxo-8-oxa-2λ6-thia-1.3-diazaspiro[4.5]decan-3-yl)-5-fluoro-1H-indol-2-yl]methanone]	–	–	–	0.98 nM	88 nM	8.6 nM
Cc1cc(Oc2ccccc2F)ncc1-n1ncc(C(=O)c2cc3cc(N4CCOCC4)c(NS(=O)(=O)C4CC4)cc3[nH]2)c1N [Example 4-24-014, N-[2-[5-amino-1-[6-(2-fluorophenoxy)-4-methylpyridin-3-yl]pyrazole-4-carbonyl]-5-morpholin-4-yl-1H-indol-6-yl]cyclopropanesulfonamide]	–	–	–	6.6 nM	360 nM	97 nM
Cc1cc(Oc2cccc(F)c2F)ccc1-n1ncc(C(=O)c2cc3cc(F)c(NS(N)(=O)=O)cc3[nH]2)c1N [Example 4-20-002, 2-[5-amino-1-[4-(2,3-difluorophenoxy)-2-methylphenyl]pyrazole-4-carbonyl]-5-fluoro-6-(sulfamoylamino)-1H-indole]	–	–	–	1 nM	50 nM	8.3 nM
CC(C)N1CCC(c2cc3cc(C(=O)c4cnn(-c5ccc(Oc6cccc(F)c6F)cc5)c4N)[nH]c3cc2F)CC1 [Example 4-2-004, [5-amino-1-[4-(2,3-difluorophenoxy)phenyl]pyrazol-4-yl]-[6-fluoro-5-(1-propan-2-ylpiperidin-4-yl)-1H-indol-2-yl]methanone]	–	–	–	0.93 nM	7.5 nM	2.3 nM
Cc1cc(-n2ncc(C(=O)c3cc4cc(OC5CCN(C6CCC6)CC5)c(F)cc4[nH]3)c2N)ccc1Oc1ccccc1F [Example 5-1-234, [5-amino-1-[4-(2-fluorophenoxy)-3-methylphenyl]pyrazol-4-yl]-[5-(1-cyclobutylpiperidin-4-yl)oxy-6-fluoro-1H-indol-2-yl]methanone]	3.2 nM	490 nM	73 nM	–	–	–
Cc1cc(Oc2c(F)cccc2F)ncc1-n1ncc(C(=O)c2cc3cc(OCC(F)F)c(NS(=O)(=O)c4cc(F)cc(F)c4)cc3[nH]2)c1N [Example 5-1-330, N-[2-[5-amino-1-[6-(2,6-difluorophenoxy)-4-methylpyridin-3-yl]pyrazole-4-carbonyl]-5-(2,2-drfluoroethoxy)-1H-indol-6-yl]-3,5-difluorobenzenesulfonamide]	11 nM	700 nM	200 nM	–	–	–
Cc1cc2cc(C(=O)c3cnn(-c4ccc(Oc5cccc(F)c5F)cc4C)c3N)[nH]c2cc1N1CCCS1(=O)=O [Example 4-2-113, [5-amino-1-[4-(2,3-difluorophenoxy)-2-methylphenyl]pyrazol-4-yl]-[6-(1,1-dioxo-1,2-thiazolidin-2-yl)-5-methyl-1H-indol-2-yl]methanone]	–	–	–	0.63 nM	18 nM	7.1 nM
Cc1cc(Oc2ccccc2F)cc(F)c1-n1ncc(C(=O)c2cc3cc(OCC(F)F)c(NS(C)(=O)=O)cc3[nH]2)c1N [Example 4-24-025, N-[2-[5-amino-1-[2-fluoro-4-(2-fluorophenoxy)-6-methylphenyl]pyrazole-4-carbonyl]-5-(2,2-difluoroethoxy)-1H-indol-6-yl]methanesulfonamide]	–	–	–	1.6 nM	59 nM	13 nM
Cc1cc2cc(C(=O)c3cnn(-c4cnc(Oc5c(F)cccc5F)cc4C)c3N)[nH]c2cc1N1C(=O)N[C@@H](CO)C1=O [Example 5-1-451, (5S)-3-[2-[5-amino-1-[6-(2,6-difluorophenoxy)-4-methylpyridin-3-yl]pyrazole-4-carbonyl]-5-methyl-1H-indol-6-yl]-5-(hydroxymethyl) imidazolidine-2,4-dione]	–	–	–	0.89 nM	41 nM	4.6 nM
Cc1cc(Oc2ccccc2F)ccc1-n1ncc(C(=O)c2cc3cc(C(C)C)c(NS(=O)(=O)CCCF)cc3[nH]2)c1N [Example 5-1-280, N-[2-[5-amino-1-[4-(2-fluorophenoxy)-2-methylphenyl]pyrazole-4-carbonyl]-5-propan-2-yl-1H-indol-6-yl]-3-fluoropropane-1-sulfonamide]	1.8 nM	80 nM	31 nM	–	–	–
Cc1cc(Oc2c(F)cccc2F)ncc1-n1ncc(C(=O)c2cc3cc(OC(F)F)c(NS(C)(=O)=O)cc3[nH]2)c1N [Example 4-24-011, N-[2-[5-amino-1-[6-(2,6-difluorophenoxy)-4-methylpyridin-3-yl]pyrazole-4-carbonyl]-5-(difluoromethoxy)-1H-indol-6-yl]methanesulfonamide]	–	–	–	2.3 nM	64 nM	13 nM
Cc1cc(Oc2c(F)cccc2F)ncc1-n1ncc(C(=O)c2cc3cc(OC4CCN(C5CS(=O)(=O)C5)CC4)c(-c4cncnc4)cc3[nH]2)c1N [Example 5-1-284, [5-amino-1-[6-(2,6-difluorophenoxy)-4-methylpyridin-3-yl]pyrazol-4-yl]-[5-[1-(1,1-dioxothietan-3-yl)piperidin-4-yl]oxy-5-pyrimidin-5-yl-1H-indol-2-yl]methanone]	1.1 nM	11 nM	6.9 nM	–	–	–
Cc1cc(Oc2ccccc2F)ncc1-n1ncc(C(=O)c2cc3cc(C4CC4)c(NS(=O)(=O)C4CCOCC4)cc3[nH]2)c1N [Example 5-1-396, N-[2-[5-amino-1-[6-(2-fluorophenoxy)-4-methylpyridin-3-yl]pyrazole-4-carbonyl]-5-cyclopropyl-1H-indol-6-yl]oxane-4-sulfonamide]	3.6 nM	230 nM	68 nM	–	–	–
Cc1cc(Oc2ccccc2F)ccc1-n1ncc(C(=O)c2cc3cc(OC(F)F)c(NS(=O)(=O)N4CCOCC4)cc3[nH]2)c1N [Example 4-22-001, N-(2-(5-amino-1-(4-(2-fluorophenoxy)-2-methylphenyl)-1H-pyrazole-4-carbonyl)-5-(difluoromethoxy)-1H-indol-6-yl)morpholine-4-sulfonamide]	–	–	–	2.6 nM	90 nM	34 nM
Cc1cccc(S(=O)(=O)Nc2cc3[nH]c(C(=O)c4cnn(-c5cnc(Oc6ccccc6F)cc5C)c4N)cc3cc2C)c1 [Example 5-1-462, N-[2-[5-amino-1-[6-(2-fluorophenoxy)-4-methylpyridin-3-yl]pyrazole-4-carbonyl]-5-methyl-1H-indol-6-yl]-3-methylbenzenesulfonamide]	–	–	–	6.1 nM	1000 nM	260 nM
Cc1cc(Oc2ccccc2F)ccc1-n1ncc(C(=O)c2cc3cc(OC(F)F)c(N4CCCS4(=O)=O)cc3[nH]2)c1N [Example 4-25-002, [5-amino-1-[4-(2-fluorophenoxy)-2-methylphenyl]pyrazol-4-yl]-[5-(difluoromethoxy)-6-(1,1-dioxo-1,2-thiazolidin-2-yl)-1H-indol-2-yl]methanone]	–	–	–	3.1 nM	37 nM	15 nM
Cc1cc(Oc2cc(F)ccc2F)cc(F)c1-n1ncc(C(=O)c2cc3cc(F)c(NS(=O)(=O)C4CC4)cc3[nH]2)c1N [Example 4-7-008, N-[2-[5-amino-1-[4-(2,5-difluorophenoxy)-2-fluoro-6-methylphenyl]pyrazole-4-carbonyl]-5-fluoro-1H-indol-6-yl]cyclopropanesulfonamide]	–	–	–	5.9 nM	490 nM	140 nM
Cc1cc2cc(C(=O)c3cnn(-c4cnc(Oc5cccc(Cl)c5)cc4C)c3N)[nH]c2cc1NS(C)(=O)=O [Example 4-2-066, N-[2-[5-amino-1-[6-(3-chlorophenoxy)-4-methylpyridin-3-yl]pyrazole-4-carbonyl]-5-methyl-1H-indol-6-yl]methanesulfonamide]	–	–	–	9.4 nM	160 nM	36 nM
Cc1cc2cc(C(=O)c3cnn(-c4cnc(Oc5ccccc5F)cc4C)c3N)[nH]c2cc1NS(=O)(=O)c1cccc(C#N)c1 [Example 5-1-440, N-[2-[5-amino-1-[6-(2-fluorophenoxy)-4-methylpyridin-3-yl]pyrazole-4-carbonyl]-5-mothyl-1H-indol-6-yl]-3-cyanobenzenesulfonamide]	–	–	–	3.7 nM	440 nM	130 nM
Cc1cc(Oc2ccccc2Cl)ncc1-n1ncc(C(=O)c2cc3cc(NS(C)(=O)=O)c(F)cc3[nH]2)c1N [Example 5-1-050, N-[2-[5-amino-1-[6-(2-chlorophenoxy)-4-methylpyridin-3-yl]pyrazole-4-carbonyl]-6-fluoro-1H-indol-5-yl]methanesulfonamide]	0.77 nM	23 nM	1.8 nM	–	–	–
